In patent US9464113B2, “Anti-heparan sulfate peptides that block herpes simplex virus infection in vivo” (The Board of Trustees of the University of Illinois, priority 2010, dated 2016):
No end group written: not given here.

Tests used:
[1] = tested on: HSV-1 glycoproteins (gB, gD, gH-gL) induced membrane fusion; assay: HSV-1 glycoprotein induced cell-to-cell fusion assay, human CF target cells; assay type: cell-based, herpes simplex virus type-1
Description: CHO-K1 “effector” cells (grown in F-12 Ham, Invitrogen) were co-transfected with plasmids expressing four HSV-1(KOS) glycoproteins: pPEP98 (gB), pPEP99 (gD), pPEP100 (gH), and pPEP101 (gL), along with the plasmid pT7EMCLuc that expresses firefly luciferase gene under transcriptional control of the T7 promoter. Pertel et al., Virology 279:313-324 (2001). Wild-type CHO-K1 cells, which express cell-surface HS but lack functional gD receptors, were transiently transfected with HSV-1 entry receptors. Wild-type CHO-K1 cultured cells expressing HSV-1 entry receptors or naturally susceptible cells (human CF) considered as “target cells” were co-transfected with pCAGT7 that expresses T7 RNA polymerase using chicken actin promoter and CMV enhancer. Tiwari et al., FEBS Letters 581:4468-4472 (2007). Untreated effector cells expressing pT7EMCLuc and HSV-1 essential glycoproteins, and target cells expressing gD receptors transfected with T7 RNA polymerase, were used as positive controls. G2 or control peptide-treated target cells were then co-cultivated (1:1 ratio) for 18 h with effector cells for fusion. Activation of a reporter luciferase gene—as a measure of cell fusion—was examined using reporter lysis assay (Promega) at 24 hr post mixing.
Since G2 was isolated against 3-OS HS, which can mediate viral penetration by promoting membrane fusion (Tiwari et al., J. Gen. Virol. 85:805-809 (2004)), the ability of G2 to block HSV-1 glycoprotein-mediated membrane fusion was tested. Pertel et al., Virology 279:313-324 (2001). The same membrane fusion is used during polykaryocytes formation and cell-to-cell spread. Tiwari et al., FEBS Letters 581:4468-4472 (2007) and Tiwari et al., Biochemical and Biophysical Research Communications 390:382-387 (2009). […]
Control effector cells (T7 polymerase and gD, gH-gL only) (−) were also pre-incubated with G2 for the same duration. […] Membrane fusion as a surrogate for viral spread was detected by monitoring luciferase activity (FIGS. 7A and 7C). Relative luciferase units (RLUs) were determined using a Sirius luminometer (Berthold detection systems). […]

[2] = tested on: HSV-1(K26GFP); assay: HSV-1(K26GFP) binding to human CF (microscopy, fluorescence reader, flow cytometry); assay type: cell-based, herpes simplex virus type-1; conditions: for virus binding by flow cytometry: 60 min pre-treatment, 4° C. (FIG. 6C)
Protocol: Flow cytometry was performed to detect the effect of G2 peptide on GFP-HSV-1 binding to human CF. Monolayers of approximately 5×10^6 CF were pre-treated with G2 peptide for 60 min followed by incubation with GFP-expressing HSV-1 (K26GFP) at 4° C. A control peptide treated and untreated cells were similarly incubated with HSV-1 GFP virions. Uninfected CF were used as background negative control. GFP expression from the viral capsid on cell surface was examined by a flowcytometer (MoFlo).
Cultured CF were pre-incubated with 0.5 mM G2 peptide or control-peptide (cp) and then infected with a GFP-tagged HSV-1(K26GFP) virus. Cells were fixed at 60 min post-infection and stained for F-actin and the nucleus (DAPI). GFP-expressing HSV-1(K26GFP) binding to CF in presence and absence of G2 peptides was examined by fluorescence microscopy (FIG. 6A). CF were grown in collagen coated chamber slides and incubated at room temperature for 60 min with G2 (+) or control Cp (G2 (−)) peptide. This was followed by the incubation of the cells in cold with GFP-expressing HSV-1(K26GFP) for 30 min and washing of unbound virioins with PBS. Cells were fixed, stained with phalloidin for F-actin and DAPI for nuclei and examined by a fluorescence microscope (Leica, SP2). The presence of the virus was shown by detecting GFP.
To examine this effect on a population of 10^5 cells, GFP intensity as an indicator of virus binding, was measured after incubation with the virus in cold and rigorous washing of the cells afterwards (FIG. 6B). Relative virus binding to CF was estimated by fluorescence measurements. Cultured CF were pre-incubated with G2 and control peptide (Cp) for 60-min before ice-cold incubation with GFP-expressing HSV-1 virus for 30 min. Cells were washed 3 times and viruses remaining on cell surfaces were assayed for GFP fluorescent intensity using a fluorescence reader (Tecan).
GFP-expressing HSV-1(K26GFP) intensity as a surrogate for virus binding was quantified in presence G2 or control peptide (abbreviated as C) by flow cytometry (FIG. 6C). The cell/virus incubation was performed as described above. G2 peptides block HSV-1 replication into cultured human corneal fibroblasts (CF) (FIG. 6D). Cultured CF were pre-incubated with G2 or mock-treated (Cp) before infection with HSV-1(K26GFP) virus for 6 h. Viral replications in CF were quantified 0-36 h post-infection by measuring GFP fluorescent intensity using a fluorescence reader (Tecan). The data shown are the means of triplicate measures and are representative of three independent experiments. Asterisks indicate significant difference from other treatments (P<0.01, t test), error bars represent standard deviation (SD).
Primary cultures of human CF pretreated with G2 peptide or control peptide (C) were analyzed for HSV-1(K26GFP) binding. […]

Sequence	blocking of membrane fusion ([1]; statement only, target cells not stated, no data shown)	virus attachment (fluorescence microscopy) ([2]; 0.5 mM, 60 min, virus in cold 30 min (FIG. 6A))	virus binding by flow cytometry [2]	relative virus binding (GFP fluorescent intensity) ([2]; fluorescence reader (FIG. 6B))	blocking of membrane fusion (luciferase activity) ([1]; human CF (FIG. 7A))	syncytia (polykaryocyte) formation, Giemsa staining ([1]; human CF (FIG. 7B))
LRSRTKIIRIRH [G1, LRSRTKIIRIRH]	does not appear to block membrane fusion	–	–	–	–	–
MPRRRRIRRRQK [G2, MPRRRRIRRRQK]	–	resisted virus attachment	virus failed to bind	binding was significantly higher in Cp-treated compared to G2 peptide treated cells	very effective in blocking membrane fusion	loss of syncytia formation
RVCGSIGKEVLG [Cp, reference compound]	–	–	low level inhibitory activity	–	–	–
